Holding throughout (assay type): cell-based
Assay [1] has as its system platelet aggregation induced by thrombin (Thr) in washed rabbit platelets. As to the kind of experiment: Inhibition of thrombin-induced aggregation of washed rabbit platelets (turbidimetry, Lumi-aggregometer). The conditions noted are these: Oryctolagus cuniculus, Thr 0.1 U/ml; for activity at 100 µg/mL: 0.05 h, compound 100 μg/ml, preincubated at 37° for 3 min, mean ± SEM (n). Here is the method: (§1) The pharmacological activity of these compounds were determined according to G.V.R. Born by turbidimetry (J. Physiol., 1963, 168, 178). Based on the method, samples were suspended in rabbit platelets which were washed with platelet-rich plasma, the aggregation was then counted by the Lumi-aggregometer (Model 1020, Paytoon, Canada). Formula (I-III) at the concentration of 100 μg/ml are found to inhibit the platelet aggregation perfectly which was induced by arachidonic acid (AA), collagen, ADP, and PAF. Since the structures of these compounds are different from those of known antiplatelet agents, the present invention have the potential for further development.
1. Bovine thrombin, from the Parke Davis Co., was dissolved in 50% (v/v) glycerol for a stock solution of 100 NIH units/mL.
(§2) Platelet suspension was prepared from EDTA-anticoagulated Platelet-rich plasma according to washing procedures described previously (Teng, C. M. et. al., Thromb Haemost 59, 304, 1991). Platelets were counted by Hemalaser 2 (Sebia, France) and adjusted to a concentration of 4.5×10^8 platelets/mL. Platelet pellets were finally suspended in Tyrode's buffer (pH 7.4) of the following composition: NaCl (136.8 mM), KCl (2.8 mM), NaHCO3 (11.9 mM), MgCl2 (2.1 mM), NaH2 PO4 (0.33 mM), CaCl2 (1 mM), glucose (11.2 mM) containing 0.35% bovine serum albumin.
(§3) Aggregation was measured by the turbidimetry method as described by O'Brien (J Clin Pathol 15, 452, 1962). ATP released from platelets was detected by the bioluminescence method of DeLuca and McElory (Methods Enzymol 57, 3, 1978). Both aggregation and ATP release were measured simultaneously in a Lumi-aggregometer (model 1020B, Payton, Canada) connected to two dt/al-channel recorders. Platelet preparations were stirred at 900 rpm. When DMSO was used as solvent, its final concentration was fixed at 0.5% (v/v) to eliminate the effect of the solvent. For the calculation of percentage aggregation, the absorbance of platelet suspension was designated as 0% aggregation and the absorbance of platelet-free Tyrode's solution as 100% aggregation. The antiplatelet effects were shown in Table 1 and the inhibitory concentrations for 50% aggregation (IC50) were expressed in Table 2.

In assay [2] the test system is platelet aggregation induced by arachidonic acid (AA) in washed rabbit platelets. Briefly: Inhibition of arachidonic acid-induced aggregation of washed rabbit platelets (turbidimetry, Lumi-aggregometer). The conditions noted are these: Oryctolagus cuniculus; for activity at 100 µg/mL: 0.05 h, AA 100 μM, compound 100 μg/ml, preincubated at 37° for 3 min, mean ± SEM (n); for IC50: AA 100 μg/ml. Here is the method:
as §1
4. AA (arachidonic acid), purchased from Sigma, was dissolved in deionized water.
as §2, §3

For assay [3], the system named is platelet aggregation induced by collagen (Col) in washed rabbit platelets. As to the kind of experiment: Inhibition of collagen-induced aggregation of washed rabbit platelets (turbidimetry, Lumi-aggregometer). The conditions noted are these: Oryctolagus cuniculus, Col 10 μg/ml; for activity at 100 µg/mL: 0.05 h, compound 100 μg/ml, preincubated at 37° for 3 min, mean ± SEM (n). Here is the method:
as §1
2. Collagen (type I: bovine Achilles tendon), from the Sigma Chemical Co., was homogenized in 25 mM acetic acid and stored (1 mg/mL) at -70° C.
as §2, §3

Assay [4] concerns platelet aggregation induced by platelet-activating factor (PAF) in washed rabbit platelets. As to the kind of experiment: Inhibition of PAF-induced aggregation of washed rabbit platelets (turbidimetry, Lumi-aggregometer). The conditions noted are these: Oryctolagus cuniculus, PAF 2 nM. Here is the method: as §1
3. PAF (1-O-alkyl-2-acetyl-sn-glycerol-3-phosphorylcholine), purchased from Sigma, was dissolved in chloroform and diluted into 0.1% BSA-saline solution immediately prior to use.
as §2, §3

SMILES strings stand for the structures. In brackets after ≈: the same amount, converted by molar mass.

What is called IC50 is the concentration at which inhibition is half-maximal. A high value points to lower potency. As to `C=C1CC(C)(COc2cc(=O)oc3ccccc23)OC1=O` (stereo not shown) [Compound 1, 4-[(2,3,4,5-Tetrahydro-2-methyl-4-methylene-5-oxo-2-furanyl)methoxy]-2H-1-benzopyran-2-one], the activity at 100 µg/mL in assay [1] is 74.4 ± 9.6%; in assay [2], 23.3 ± 12.6%; in assay [3] it was 8.5 ± 6.9%. The IC50 in assay [1], in assay [2], in assay [3] and in assay [4] was greater than 50 µg/mL each time.
On to `C=C1CC(COc2cc(=O)oc3ccccc23)(c2ccccc2)OC1=O` (stereo not shown) [Compound 2, 4-[(2,3,4,5-Tetrahydro-4-methylene-5-oxo-2-phenyl-2-furanyl)methoxy]-2H-1-benzopyran-2-one], for which the activity at 100 µg/mL in assay [1], in assay [2] and in assay [3] was 0% throughout. Also, the IC50 in assay [2] is 2.86 µg/mL (≈ 8.21 µM); in assay [4], 36 µg/mL (≈ 103 µM).
For `C=C1CC(C)(COc2ccc3ccc(=O)oc3c2)OC1=O` (stereo not shown) [Compound 3, 7-[(2,3,4,5-Tetrahydro-2-methyl-4-methylene-5-oxo-2-furanyl)methoxy]-2H-1-benzopyran-2-one], the activity at 100 µg/mL in assay [1] was determined as 22.8 ± 6.6%; in assay [2], 0%; in assay [3], 0%. Also, the half-maximal inhibitory concentration (IC50) in assay [1] is greater than 50 µg/mL; in assay [2] it was 26.1 µg/mL (≈ 91.1 µM); in assay [4] it was greater than 50 µg/mL.
Turning to `C=C1CC(COc2ccc3ccc(=O)oc3c2)(c2ccccc2)OC1=O` (stereo not shown) [Compound 4, 7-[(2,3,4,5-Tetrahydro-4-methylene-5-oxo-2-Phenyl-2-furanyl)methoxy]-2H-1-benzopyran-2-one], the activity at 100 µg/mL in assay [1], in assay [2] and in assay [3] was 0% throughout. In addition, the results for the IC50 in assay [2] and in assay [4] were 1.27 µg/mL (≈ 3.65 µM) and 5.7 µg/mL (≈ 16.4 µM), respectively.
As to `C=C1CC(C)(COc2cccc3ccc(=O)[nH]c23)OC1=O` (stereo not shown) [Compound 5, 8-[(2,3,4,5-Tetrahydro-2-methyl-4-methylene-5-oxo-2-furanyl)methoxy]-2(1H)-quinolinone], the activity at 100 µg/mL is 25.9 ± 0.7% in assay [1], 0% in assay [2] and 0% in assay [3]. This molecule also had a half-maximal inhibitory concentration (IC50) in assay [2] of 10.5 µg/mL (≈ 36.9 µM).
For `C=C1CC(COc2cccc3ccc(=O)[nH]c23)(c2ccccc2)OC1=O` (stereo not shown) [Compound 6, 8-[(2,3,4,5-Tetrahydro-4-methylene-5-oxo-2-phenyl-2-furanyl)methoxy]-2(1H)-quinolinone], the activity at 100 µg/mL came out at 54.3 ± 1.3% in assay [1], 0% in assay [2] and 0% in assay [3]. For the same molecule, the IC50 was greater than 50 µg/mL in assay [1], 8.3 µg/mL (≈ 23.9 µM) in assay [2] and greater than 50 µg/mL in assay [4].
`C=C1CC(C)(COc2cccc3cccnc23)OC1=O` (stereo not shown) [Compound 7, 8-[(2,3,4,5-Tetrahydro-2-methyl-4-methylene-5-oxo-2-furanyl)methoxy]quinoline]: the activity at 100 µg/mL turned out to be 17.4 ± 7.9% in assay [1], 0% in assay [2] and 0% in assay [3]. Further, the concentration for half-maximal inhibition (IC50) in assay [1] is greater than 50 µg/mL; in assay [3], 27.2 µg/mL (≈ 101 µM); in assay [4] it was 47.9 µg/mL (≈ 178 µM).
With `C=C1CC(COc2cccc3cccnc23)(c2ccccc2)OC1=O` (stereo not shown) [Compound 8, 8-[(2,3,4,5-Tetrahydro-4-methylene-5-oxo-2-phenyl-2-furanyl)methoxy]quinoline], the activity at 100 µg/mL in assay [1], in assay [2] and in assay [3] was 0% each time. Besides, the IC50 was 15.8 µg/mL (≈ 47.6 µM) in assay [1], 4.76 µg/mL (≈ 14.4 µM) in assay [3] and 11.1 µg/mL (≈ 33.6 µM) in assay [4].
Turning to `C=C1CC(COc2cccc3cccnc23)(c2ccc(Cl)cc2)OC1=O` (stereo not shown) [Compound 9, 8-[(2-(p-Chlorophenyl)-2,3,4,5-tetrahydro-4-methylene-5-oxo-2-furanyl)methoxy]quinoline], the activity at 100 µg/mL in assay [1], in assay [2] and in assay [3] was 0% in each case. In addition, the half-inhibitory concentration (IC50) was found to be 13.7 µg/mL (≈ 37.4 µM) in assay [1], 5.17 µg/mL (≈ 14.1 µM) in assay [3] and 12.4 µg/mL (≈ 33.8 µM) in assay [4].
Consider `C=C1CC(C)(COc2cccc3ccc(C)nc23)OC1=O` (stereo not shown) [Compound 10, 8-[(2,3,4,5-Tetrahydro-2-methyl-4-methylene-5-oxo-2-furanyl)methoxy]-2-methylquinoline], for which the activity at 100 µg/mL in assay [1], in assay [2] and in assay [3] was 0% each time. In addition, the values for the half-inhibitory concentration (IC50) in assay [1], in assay [3] and in assay [4] were greater than 50 µg/mL, 16.2 µg/mL (≈ 57.3 µM) and 39.6 µg/mL (≈ 140 µM), respectively.
In the case of `C=C1CC(COc2cccc3ccc(C)nc23)(c2ccccc2)OC1=O` (stereo not shown) [Compound 11, 8-[(2,3,4,5-Tetrahydro-4-methylene-5-oxo-2-phenyl-2-furanyl)methoxy]-2-methylquinoline], the activity at 100 µg/mL in assay [1], in assay [2] and in assay [3] was 0% throughout. The results for the IC50 in assay [1], in assay [3] and in assay [4] were 14.9 µg/mL (≈ 43.1 µM), 5.76 µg/mL (≈ 16.7 µM) and 10.5 µg/mL (≈ 30.5 µM), respectively.
On to `C=C1CC(COc2cccc3ccc(C)nc23)(c2ccc(Cl)cc2)OC1=O` (stereo not shown) [Compound 12, 8-[(2-(p-Chlorophenyl)-2,3,4,5-tetrahydro-4-methylene-5-oxo-2-furanyl)methoxy]-2-methylquinoline], for which the activity at 100 µg/mL in assay [1], in assay [2] and in assay [3] was 0% in each case. In assay [4], this molecule gave an IC50 of 10.8 µg/mL (≈ 28.5 µM).

For the origin of these results see patent US5646164A, “α-methylene-γ-butyrolactones: new inhibitors of platelet aggregation” (National Science Council, priority 1995, dated 1997).
